One block for each compound: values may come before it.
Tested on: K98450-129-R-PDC multicell spheroids, viability
Test: Anticancer human tumor K98450-129-R-PDC patient-derived colon adenocarcinoma cell line growth inhibition [PI3K]
Details: for IC50: curve of first compound; for viability, T/C: stronger effect = lower value
Summary of the method: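 Complex 3D spheroids (cancer cells + endothelial HUVEC + mesenchymal stem cells); drug pairs of targeted agent x inavolisib/alpelisib/duvelisib/copanlisib; half-log series from ~Cmax, max 10 microM if Cmax unknown; endpoint viability.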

[1] = second compound 0.00316 µM, first compound 0.0316 µM
[2] = second compound 0.00316 µM, first compound 0.1 µM
[3] = second compound 0.00316 µM, first compound 0.316 µM
[4] = second compound 0.00316 µM, first compound 1 µM
[5] = second compound 0.00316 µM, first compound 3.16 µM
[6] = second compound 0.00316 µM, first compound 10 µM
[7] = second compound 0.01 µM, first compound 0.0316 µM
[8] = second compound 0.01 µM, first compound 0.1 µM
[9] = second compound 0.01 µM, first compound 0.316 µM
[10] = second compound 0.01 µM, first compound 1 µM
[11] = second compound 0.01 µM, first compound 3.16 µM
[12] = second compound 0.01 µM, first compound 10 µM
[13] = second compound 0.0316 µM, first compound 0.0316 µM
[14] = second compound 0.0316 µM, first compound 0.1 µM
[15] = second compound 0.0316 µM, first compound 0.316 µM
[16] = second compound 0.0316 µM, first compound 1 µM
[17] = second compound 0.0316 µM, first compound 3.16 µM
[18] = second compound 0.0316 µM, first compound 10 µM
[19] = second compound 0.1 µM, first compound 0.0316 µM
[20] = second compound 0.1 µM, first compound 0.1 µM
[21] = second compound 0.1 µM, first compound 0.316 µM
[22] = second compound 0.1 µM, first compound 1 µM
[23] = second compound 0.1 µM, first compound 3.16 µM
[24] = second compound 0.1 µM, first compound 10 µM
[25] = second compound 0.316 µM, first compound 0.0316 µM
[26] = second compound 0.316 µM, first compound 0.1 µM
[27] = second compound 0.316 µM, first compound 0.316 µM
[28] = second compound 0.316 µM, first compound 1 µM
[29] = second compound 0.316 µM, first compound 3.16 µM
[30] = second compound 0.316 µM, first compound 10 µM
[31] = second compound 1 µM, first compound 0.0316 µM
[32] = second compound 1 µM, first compound 0.1 µM
[33] = second compound 1 µM, first compound 0.316 µM
[34] = second compound 1 µM, first compound 1 µM
[35] = second compound 1 µM, first compound 3.16 µM
[36] = second compound 1 µM, first compound 10 µM
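Also: spheroids exposed to agents for seven days before read-out.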

IC50 (second compound 0.00316 µM): 5.99 µM
IC50 (second compound 0.01 µM): 5.77 µM
IC50 (second compound 0.0316 µM): 5.54 µM
IC50 (second compound 0.1 µM): 4 µM
IC50 (second compound 0.316 µM): 2.71 µM
IC50 (second compound 1 µM): 1.65 µM
SMILES: CCCS(=O)(=O)Nc1ccc(F)c(C(=O)c2c[nH]c3ncc(-c4ccc(Cl)cc4)cc23)c1F + COc1c(OCCCN2CCOCC2)ccc2c3n(c(=NC(=O)c4cnc(N)nc4)nc12)CCN3
viability, T/C [1]: 107%
viability, T/C [2]: 105%
viability, T/C [3]: 95.1%
viability, T/C [4]: 120%
viability, T/C [5]: 105%
viability, T/C [6]: 5.65%
viability, T/C [7]: 116%
viability, T/C [8]: 93%
viability, T/C [9]: 93.4%
viability, T/C [10]: 60.2%
viability, T/C [11]: 93.9%
viability, T/C [12]: 12.2%
viability, T/C [13]: 99%
viability, T/C [14]: 95.5%
viability, T/C [15]: 82.3%
viability, T/C [16]: 78.3%
viability, T/C [17]: 91.6%
viability, T/C [18]: 8.56%
viability, T/C [19]: 84%
viability, T/C [20]: 98.2%
viability, T/C [21]: 76.2%
viability, T/C [22]: 80.2%
viability, T/C [23]: 61.7%
viability, T/C [24]: 7.64%
viability, T/C [25]: 66.5%
viability, T/C [26]: 79.5%
viability, T/C [27]: 72%
viability, T/C [28]: 80.2%
viability, T/C [29]: 46.2%
viability, T/C [30]: 7.49%
viability, T/C [31]: 57.6%
viability, T/C [32]: 53.8%
viability, T/C [33]: 54.3%
viability, T/C [34]: 59.9%
viability, T/C [35]: 41.9%
viability, T/C [36]: 7.62%

IC50 (second compound 0.0316 µM): 6.04 µM
IC50 (second compound 0.1 µM): 6 µM
IC50 (second compound 0.316 µM): 5.81 µM
IC50 (second compound 1 µM): 5.69 µM
IC50 (second compound 3.16 µM): 5.33 µM
IC50 (second compound 10 µM): 4.79 µM
SMILES: CCCS(=O)(=O)Nc1ccc(F)c(C(=O)c2c[nH]c3ncc(-c4ccc(Cl)cc4)cc23)c1F + Cc1nc(NC(=O)N2CCCC2C(N)=O)sc1-c1ccnc(C(C)(C)C(F)(F)F)c1
viability, T/C [13]: 106%
viability, T/C [14]: 98.7%
viability, T/C [15]: 101%
viability, T/C [16]: 101%
viability, T/C [17]: 124%
viability, T/C [18]: 6.29%
viability, T/C [19]: 108%
viability, T/C [20]: 96.9%
viability, T/C [21]: 105%
viability, T/C [22]: 103%
viability, T/C [23]: 118%
viability, T/C [24]: 5.28%
viability, T/C [25]: 95.8%
viability, T/C [26]: 95.8%
viability, T/C [27]: 94.1%
viability, T/C [28]: 92.8%
viability, T/C [29]: 120%
viability, T/C [30]: 5.66%
viability, T/C [31]: 89.2%
viability, T/C [32]: 90.9%
viability, T/C [33]: 94.3%
viability, T/C [34]: 92.9%
viability, T/C [35]: 107%
viability, T/C [36]: 6.99%
viability, T/C (second compound 3.16 µM, first compound 0.0316 µM): 84%
viability, T/C (second compound 3.16 µM, first compound 0.1 µM): 85.8%
viability, T/C (second compound 3.16 µM, first compound 0.316 µM): 84.5%
viability, T/C (second compound 3.16 µM, first compound 1 µM): 89%
viability, T/C (second compound 3.16 µM, first compound 3.16 µM): 88.8%
viability, T/C (second compound 3.16 µM, first compound 10 µM): 6.1%
viability, T/C (second compound 10 µM, first compound 0.0316 µM): 70.5%
viability, T/C (second compound 10 µM, first compound 0.1 µM): 72.8%
viability, T/C (second compound 10 µM, first compound 0.316 µM): 78%
viability, T/C (second compound 10 µM, first compound 1 µM): 71.1%
viability, T/C (second compound 10 µM, first compound 3.16 µM): 76.9%
viability, T/C (second compound 10 µM, first compound 10 µM): 7.67%

IC50 (second compound 0.00316 µM): > 10 µM
IC50 (second compound 0.01 µM): > 10 µM
IC50 (second compound 0.0316 µM): > 10 µM
IC50 (second compound 0.1 µM): > 10 µM
IC50 (second compound 0.316 µM): > 10 µM
IC50 (second compound 1 µM): > 10 µM
SMILES: Cn1nccc1Nc1nccc(-c2ccn(C(CO)c3ccc(Cl)c(F)c3)c(=O)c2)n1 (stereo not drawn) + CC(Nc1ccc2c(c1)OCCn1cc(N3C(=O)OCC3C(F)F)nc1-2)C(N)=O
viability, T/C [1]: 109%
viability, T/C [2]: 96.3%
viability, T/C [3]: 107%
viability, T/C [4]: 99.2%
viability, T/C [5]: 101%
viability, T/C [6]: 94.2%
viability, T/C [7]: 108%
viability, T/C [8]: 97.5%
viability, T/C [9]: 99.1%
viability, T/C [10]: 94.7%
viability, T/C [11]: 98.8%
viability, T/C [12]: 88.7%
viability, T/C [13]: 103%
viability, T/C [14]: 103%
viability, T/C [15]: 96.5%
viability, T/C [16]: 94.4%
viability, T/C [17]: 99.2%
viability, T/C [18]: 91%
viability, T/C [19]: 95.5%
viability, T/C [20]: 98.5%
viability, T/C [21]: 98.2%
viability, T/C [22]: 93.1%
viability, T/C [23]: 98.9%
viability, T/C [24]: 88.7%
viability, T/C [25]: 91.5%
viability, T/C [26]: 90.7%
viability, T/C [27]: 101%
viability, T/C [28]: 96.2%
viability, T/C [29]: 99.4%
viability, T/C [30]: 87.4%
viability, T/C [31]: 83.6%
viability, T/C [32]: 84.4%
viability, T/C [33]: 91%
viability, T/C [34]: 87.7%
viability, T/C [35]: 90.9%
viability, T/C [36]: 82.2%

IC50 (second compound 0.00316 µM): > 0.1 µM
IC50 (second compound 0.01 µM): > 0.1 µM
IC50 (second compound 0.0316 µM): > 0.1 µM
IC50 (second compound 0.1 µM): > 0.1 µM
IC50 (second compound 0.316 µM): > 0.1 µM
IC50 (second compound 1 µM): > 0.1 µM
SMILES: Cn1ncnc1[C@H]1c2n[nH]c(=O)c3cc(F)cc(c23)N[C@@H]1c1ccc(F)cc1 + CC(Nc1ccc2c(c1)OCCn1cc(N3C(=O)OCC3C(F)F)nc1-2)C(N)=O
viability, T/C (second compound 0.00316 µM, first compound 0.000316 µM): 112%
viability, T/C (second compound 0.00316 µM, first compound 0.001 µM): 92.8%
viability, T/C (second compound 0.00316 µM, first compound 0.00316 µM): 100%
viability, T/C (second compound 0.00316 µM, first compound 0.01 µM): 96.5%
viability, T/C [1]: 102%
viability, T/C [2]: 95.4%
viability, T/C (second compound 0.01 µM, first compound 0.000316 µM): 114%
viability, T/C (second compound 0.01 µM, first compound 0.001 µM): 92.8%
viability, T/C (second compound 0.01 µM, first compound 0.00316 µM): 99.2%
viability, T/C (second compound 0.01 µM, first compound 0.01 µM): 93.8%
viability, T/C [7]: 95.9%
viability, T/C [8]: 94.3%
viability, T/C (second compound 0.0316 µM, first compound 0.000316 µM): 104%
viability, T/C (second compound 0.0316 µM, first compound 0.001 µM): 99%
viability, T/C (second compound 0.0316 µM, first compound 0.00316 µM): 89.3%
viability, T/C (second compound 0.0316 µM, first compound 0.01 µM): 100%
viability, T/C [13]: 98.5%
viability, T/C [14]: 96.9%
viability, T/C (second compound 0.1 µM, first compound 0.000316 µM): 92%
viability, T/C (second compound 0.1 µM, first compound 0.001 µM): 100%
viability, T/C (second compound 0.1 µM, first compound 0.00316 µM): 99%
viability, T/C (second compound 0.1 µM, first compound 0.01 µM): 95.1%
viability, T/C [19]: 104%
viability, T/C [20]: 89.8%
viability, T/C (second compound 0.316 µM, first compound 0.000316 µM): 90.6%
viability, T/C (second compound 0.316 µM, first compound 0.001 µM): 89.5%
viability, T/C (second compound 0.316 µM, first compound 0.00316 µM): 96%
viability, T/C (second compound 0.316 µM, first compound 0.01 µM): 91.6%
viability, T/C [25]: 100%
viability, T/C [26]: 92.6%
viability, T/C (second compound 1 µM, first compound 0.000316 µM): 88.4%
viability, T/C (second compound 1 µM, first compound 0.001 µM): 92.2%
viability, T/C (second compound 1 µM, first compound 0.00316 µM): 88.8%
viability, T/C (second compound 1 µM, first compound 0.01 µM): 88.6%
viability, T/C [31]: 93.6%
viability, T/C [32]: 86.9%

From PubChem BioAssay AID1963961 (Molecular Pharmacology Branch, DTP, NCI, 2024)
